Measured values taken from ChEMBL document CHEMBL1142752, “Synthesis and antiviral activities of novel N-alkoxy-arylsulfonamide-based HIV protease inhibitors” (Bioorg Med Chem Lett, 2005).

Each molecule was assayed against Human immunodeficiency virus type 1 protease (Human immunodeficiency virus 1, UniProt Q72874) (assay: Inhibition constant against HIV-1 protease).

Going from `COc1ccc(S(=O)(=O)N(C[C@@H](O)[C@H](Cc2ccccc2)NC(=O)OC(C)(C)C)OC2CCCCC2)cc1` to `COc1ccc(S(=O)(=O)N(C[C@@H](O)[C@H](Cc2ccccc2)NC(=O)OC(C)(C)C)OC2CCCC2)cc1`, the Ki falls from 2.8 nM to 1.6 nM (1.7-fold).

Compared with `COc1ccc(S(=O)(=O)N(CC(O)C(Cc2ccccc2)NC(=O)[C@H](CC(N)=O)NC(=O)c2ccc3ccccc3n2)OC2CCCC2)cc1` (some centres not stated), `COC(=O)N[C@H](C(=O)N[C@@H](Cc1ccccc1)[C@H](O)CN(OC1CCCC1)S(=O)(=O)c1ccc(OC)cc1)C(C)(C)C` is higher in Ki: less than 0.005 nM for the first, 0.09 nM for the second. The first binds more tightly here.

Compared with `COc1ccc(S(=O)(=O)N(C[C@@H](O)[C@H](Cc2ccccc2)NC(=O)OC(C)(C)C)Oc2ccccc2)cc1`, `COc1ccc(S(=O)(=O)N(C[C@@H](O)[C@H](Cc2ccccc2)NC(=O)OC(C)(C)C)OC(C)C)cc1` [ENTRY A] is 1.6-fold lower in Ki: 22 nM for the first, 14 nM for the second. The second binds more tightly here.

`O=C(N[C@@H](Cc1ccccc1)[C@H](O)CN(OC1CCCC1)S(=O)(=O)c1ccc(O)cc1)O[C@H]1CO[C@H]2OCC[C@H]21` and `O=C(N[C@@H](Cc1ccccc1)[C@H](O)CN(OC1CCCCC1)S(=O)(=O)c1ccc(O)cc1)O[C@H]1CO[C@H]2OCC[C@H]21` cannot be ordered by Ki: less than 0.005 nM for the first, less than 0.005 nM for the second.

Going from `Nc1ccc(S(=O)(=O)N(C[C@@H](O)[C@H](Cc2ccccc2)NC(=O)O[C@H]2CO[C@H]3OCC[C@H]32)OC2CCCC2)cc1` to `Nc1ccc(S(=O)(=O)N(C[C@@H](O)[C@H](Cc2ccccc2)NC(=O)O[C@H]2CO[C@H]3OCC[C@H]32)OC2CCCCC2)cc1`, the Ki rises from less than 0.005 nM to 0.018 nM. The first binds more tightly here.

First: Nc1cccc(S(=O)(=O)N(C[C@@H](O)[C@H](Cc2ccccc2)NC(=O)O[C@H]2CO[C@H]3OCC[C@H]32)OC2CCCC2)c1
Second: Nc1cccc(S(=O)(=O)N(C[C@@H](O)[C@H](Cc2ccccc2)NC(=O)O[C@H]2CO[C@H]3OCC[C@H]32)OC2CCCCC2)c1
The Ki of the first is lower: less than 0.005 nM for the first, 0.005 nM for the second. The first binds more tightly here.

`O=C(N[C@@H](Cc1ccccc1)[C@H](O)CN(OC1CCCC1)S(=O)(=O)c1ccc2c(c1)OCO2)O[C@H]1CO[C@H]2OCC[C@H]21` and `O=C(N[C@@H](Cc1ccccc1)[C@H](O)CN(OC1CCCCC1)S(=O)(=O)c1ccc2c(c1)OCO2)O[C@H]1CO[C@H]2OCC[C@H]21` cannot be ordered by Ki: less than 0.005 nM for the first, less than 0.005 nM for the second.

`COc1ccc(S(=O)(=O)N(C[C@@H](O)[C@H](Cc2ccccc2)NC(=O)OC(C)(C)C)OCC(C)C)cc1` and `CCC(CC)ON(C[C@@H](O)[C@H](Cc1ccccc1)NC(=O)OC(C)(C)C)S(=O)(=O)c1ccc(OC)cc1` are within 1.5-fold of each other in Ki: 4 nM for the first, 3.2 nM for the second.

`COc1ccc(S(=O)(=O)N(C[C@@H](O)[C@H](Cc2ccccc2)NC(=O)O[C@@H]2COC3OCCC32)OC2CCCC2)cc1` (some centres not stated) and `COc1ccc(S(=O)(=O)N(C[C@@H](O)[C@H](Cc2ccccc2)NC(=O)O[C@H]2CO[C@H]3OCC[C@H]32)OC2CCCC2)cc1` cannot be ordered by Ki: less than 0.005 nM for the first, less than 0.005 nM for the second.

`O=C(N[C@@H](Cc1ccccc1)[C@H](O)CN(OC1CCCCC1)S(=O)(=O)c1ccc2c(c1)OCCO2)O[C@H]1CO[C@H]2OCC[C@H]21` and `O=C(N[C@@H](Cc1ccccc1)[C@H](O)CN(OC1CCCC1)S(=O)(=O)c1ccc2c(c1)OCCO2)O[C@H]1CO[C@H]2OCC[C@H]21` cannot be ordered by Ki: less than 0.005 nM for the first, less than 0.005 nM for the second.

Going from `COc1ccc(S(=O)(=O)N(C[C@@H](O)[C@H](Cc2ccccc2)NC(=O)OC(C)(C)C)OCC2CCCCC2)cc1` to `COc1ccc(S(=O)(=O)N(C[C@@H](O)[C@H](Cc2ccccc2)NC(=O)OC2CCOC2)OC2CCCC2)cc1` (some centres not stated), the Ki falls from 12 nM to 0.19 nM (63-fold).
